Measured values published in the Kinase Knowledgebase extract (Sharma et al. 2016).
pIC50: −log10 of the molar value.

Target: MAPK14 (UniProt Q16539)
Assay: Assessment of MAPK14 Kinase Activity Using Spectrophotometric Assay
Details: for inhibition: concentration not given here

Sequence of MAPK14 (Q16539 whole entry, looked up): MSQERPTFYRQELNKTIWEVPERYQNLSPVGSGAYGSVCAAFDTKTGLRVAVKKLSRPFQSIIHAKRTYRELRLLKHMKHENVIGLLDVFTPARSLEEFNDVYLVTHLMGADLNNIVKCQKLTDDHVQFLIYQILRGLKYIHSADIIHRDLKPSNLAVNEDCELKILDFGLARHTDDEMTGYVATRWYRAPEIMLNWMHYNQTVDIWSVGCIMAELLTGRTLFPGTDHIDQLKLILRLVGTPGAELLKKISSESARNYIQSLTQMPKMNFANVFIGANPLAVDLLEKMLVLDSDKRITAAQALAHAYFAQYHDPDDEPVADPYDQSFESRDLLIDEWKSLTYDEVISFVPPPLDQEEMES

inhibition	pIC50	Structure (SMILES)
90%	–	Cc1ccc(NC(=O)Nc2cc(C(C)(C)C)nn2-c2cccc(CC(N)=O)c2)cc1Nc1ncccn1
–	7.52	O=C(O)CCc1ccc(-n2nc(-c3cccs3)cc2NC(=O)Nc2cccc(Cl)c2Cl)cc1
58%	–	CC(C)(C)c1cc(NC(=O)N2=CC=C3C=CC=CC3=C2)n(n1)c4cccc(CCC(=O)O)c4
–	6.92	CC(C)(C)c1cc(NC(=O)Nc2cccc3c2C=NC3=O)n(-c2cccc(CC(N)=O)c2)n1

Further lines, the compound ahead of its results:

Structure (SMILES)	inhibition	pIC50
NC(=O)Cc1cccc(-n2nc(C3CCCC3)cc2NC(=O)Nc2ccc(-c3cccc4c3C=NC4=O)cc2)c1	82%	–
CC(C)(C)c1cc(NC(=O)Nc2cccc(Cl)c2Cl)n(-c2ccc(CCC(=O)O)cc2)n1	–	7.85
CN1C(=O)C(c2cccc(NC(=O)Nc3cc(C(C)(C)C)nn3-c3ccc4c(c3)CCN4S(C)(=O)=O)c2)C=C2C=NC=NC21 (centres undefined)	–	7.55
CC(O)c1cc(-n2nc(C(C)(C)C)cc2NC(=O)Nc2cccc(Cl)c2Cl)cc2ccccc12 (centres undefined)	–	6.82
CC(C)(C)c1cc(NC(=O)Nc2cccc(-c3ncccn3)c2)n(-c2cccc(CC(N)=O)c2)n1	57%	–
O=C(Nc1cccc(Cl)c1Cl)Nc1cc(-c2ccccc2F)nn1-c1ccc(CC(=O)N2CC[C@H](CO)C2)cc1	–	7.43
CC(C)(C)c1cc(NC(=O)Nc2cccc(Cl)c2Cl)n(-c2cccc(CC(=O)O)c2)n1	–	7.66
COc1cccc(-n2nc(C(C)(C)C)cc2NC(=O)Nc2cccc(Br)c2)c1	–	6.45
CN1C(=O)C(c2cccc(NC(=O)Nc3cc(C(C)(C)C)nn3-c3ccc4c(c3)CCN4)c2)C=C2C=NC=NC21 (centres undefined)	–	7.89
CC(C)(C)c1cc(NC(=O)Nc2cccc(Cl)c2)n(-c2cccc(CN)c2)n1	–	6.96
